Experimental data published in US9682931B2, “Aryloyl(oxy or amino)pentafluorosulfanylbenzene compound, pharmaceutically acceptable salt thereof, and prodrugs thereof” (UBE INDUSTRIES, LTD., priority 2013, dated 2017).

Key:
[1] = tested on: Streptococcus mutans NBRC13955; experiment: Antimicrobial test on oral bacteria, bactericidal effect test; assay type: cell-based; conditions: for bactericidal action on Streptococcus mutans cells: one minute
Experimental: Antimicrobial Test on Oral Bacteria
1. Antimicrobial Action on Streptococcus mutans
The antimicrobial effect of two types of test substances (Compound 3 and Compound 7) on Streptococcus mutans was evaluated.
1) Preparation of Test Microbe
A microbe strain (Streptococcus mutans NBRC13955) cryopreserved was cultured in TSA medium at 36±1° C. for 18 to 24 hours. The cultured microbial cells were transferred to a fresh TSA medium and cultured at 36±1° C. for 18 to 24 hours. The grown colonies were scraped out and suspended in sterile ion-exchange water to prepare a solution having about 10^7 CFU/mL, which was used as a test microbe solution.
2) Preparation of Test Solution […]
3) Bactericidal Effect Test
From individual test solutions previously kept at 25±2° C., an aliquot (10 mL) was dispensed to centrifuge tubes of 50 mL in volume. To each of the centrifuge tubes, the test microbe solution (0.1 mL) was inoculated, mixed and allowed to react. After a predetermined reaction time, the resultant test solution (1 mL) was taken out. To this, 9 mL of a deactivator (SCDLP medium (manufactured by Eiken Chemical Co., Ltd.), which was confirmed as effective deactivator), was added to inactivate the bactericidal component of the test solution. The number of microbial cells in the resultant sample solution was determined. The solution obtained by carrying out the same procedure except that a sterile physiological saline was used in place of the test solution, was used as a control.
4) Determination of the Number of Microbial Cells
Using the sample solution as a stock solution, serial dilution was performed with a sterile physiological saline to obtain 10-fold serial dilutions. 1 mL of the sample solution or each of the dilutions was aseptically transferred to a petri dish, mixed with TSA medium (20 mL), solidified and cultured at 36±2° C. for 48 hours. After the culture, colonies grown on the medium were counted to obtain the number of test microbe cells per test solution (1 mL) (lower limit of quantification: 10 CFU/test solution (1 mL)).

RBL-2H3 cells = experiment: Degranulation suppression test of RBL-2H3 cells (β-hexosaminidase release, IgE stimulation); assay type: cell-based, Rat; conditions: for Degranulation ratio: relative to untreated control, n = 4
Experimental: 1. Degranulation Suppression Test of RBL-2H3 Cells
As to Compound 3, the granule release (degranulation) suppression action on RBL-2H3 cell by IgE stimulation, which is a cell model for an allergic reaction, was examined.
A test substance (50 mg) was dissolved by adding 1 mL of 50 vol % ethanol to the test substance to obtain a concentration of 50 mg/mL. The solution thus obtained was diluted with a buffer solution. […] The concentrations were all indicated as the concentrations in cell supernatants.
β-Hexosaminidase abundantly present in granules of RBL-2H3 cells was used as the index of degranulation caused by IgE stimulation, and p-nitrophenol produced by the reaction with a substrate was measured by colorimetric assay. The activity values of β-hexosaminidase present within cells and released in the culture supernatant were determined to obtain the release rate of β-hexosaminidase, and then, a degranulation rate relative to an untreated control was obtained. Based on this, degranulation inhibitory action was evaluated.
Main test conditions and outline of the operation will be described below.
Cell: Rat basophil leukemic cell, RBL-2H3 [Human Sciences Foundation]
Stimulation of degranulation: Anti-DNP-IgE antibody, DNP labeled albumin [Sigma-Aldrich Corporation]
Degranulation Index: 3-Hexosaminidase activity
Measurement apparatus: Microplate reader, SpectraMax M2c • [Molecular Devices Corporation]
In this test, an action to suppress granule release (degranulation) in mast cells caused by an IgE antigen stimulation is evaluated. Thus, the smaller the degranulation ratio is, the stronger the effect is […]

Row | SMILES | number of the cells reduced (fraction) ([1]; 0.01 w/v %, 5 minutes) | number of test microbe cells ([1]; 0.01 w/v %, working time 1 min) | number of test microbe cells ([1]; 0.01 w/v %, working time 5 min) | bactericidal action on Streptococcus mutans cells ([1]; 0.05 w/v %) | number of test microbe cells ([1]; 0.05 w/v %, working time 1 min) | number of test microbe cells ([1]; 0.05 w/v %, working time 5 min) | cytotoxicity (visual) (RBL-2H3 cells; RBL-2H3 cells, any concentration) | Degranulation ratio (RBL-2H3 cells; sample 1 μg/mL) [%] | Degranulation ratio (RBL-2H3 cells; sample 10 μg/mL) [%] | Degranulation ratio (RBL-2H3 cells; sample 25 μg/mL) [%] | Degranulation ratio (RBL-2H3 cells; sample 50 μg/mL in cell supernatant) [%] | Degranulation ratio (RBL-2H3 cells; sample 100 μg/mL in cell supernatant) [%] | number of test microbe cells ([1]; 0.001 w/v %, working time 1 min) | number of test microbe cells ([1]; 0.001 w/v %, working time 5 min) | bactericidal action on Streptococcus mutans cells ([1]; 0.005 w/v %) | number of test microbe cells ([1]; 0.005 w/v %, working time 1 min) | number of test microbe cells ([1]; 0.005 w/v %, working time 5 min)
1 | O=C(Nc1ccc(S(F)(F)(F)(F)F)cc1)c1cc(O)c(O)c(O)c1 [Compound 3, 4-(3,4,5-trihydroxybenzoylamino)pentafluorosulfanylbenzene] | 1/10 | 380,000 CFU/test solution (1 mL) | 34,000 CFU/test solution (1 mL) | almost completely killed | <10 CFU/test solution (1 mL) | <10 CFU/test solution (1 mL) | not visually confirmed | 91 | 85 | 73 | 35 | 19 |  |  |  |  | 
2 | O=C(Oc1ccc(S(F)(F)(F)(F)F)cc1)c1cc(O)c(O)c(O)c1 [Compound 7, 4-(3,4,5-trihydroxybenzoyloxy)pentafluorosulfanylbenzene] |  |  |  |  |  |  |  |  |  |  |  |  | 460,000 CFU/test solution (1 mL) | 280,000 CFU/test solution (1 mL) | almost completely killed | <10 CFU/test solution (1 mL) | <10 CFU/test solution (1 mL)
